Counter-ions that a name gives are not always drawn.
Assay: Solubility in lipophilic vehicles
Type: physicochemical
Settings: lipophilic vehicles like liquid or light liquid paraffin

- solubility in lipophilic vehicles: very low
Structure (SMILES): Cc1ccc(Nc2nccc(N(C)c3ccc4c(C)n(C)nc4c3)n2)cc1S(N)(=O)=O [pazopanib hydrochloride, 5-[[4-[(2,3-Dimethyl-2H-indazol-6-yl)methylamino]-2-pyrimidinyl]amino]-2-methylbenzolsulfonamide]

From patent US20150141448A1, “Topical Ophthalmological Pharmaceutical Composition containing Pazopanib” (BAYER HEALTHCARE LLC, priority 2012, published 2015)
